We go through 1 compound from patent US20110135671A1, “PURINE DERIVATIVES FOR USE IN THE TREATMENT OF ALLERGIC, INFLAMMATORY AND INFECTIOUS DISEASES” (GLAXOSMITHKLINE LLC, priority 2008, published 2011).

Test [1] relates to Interferon-α. The test can be described thus: Induction of Interferon-α using cryopreserved human PBMCs. The test is classed as cell-based. The following applies: PBMC, 24 h, normalised to 1 uM resiquimod, read-out: mean pEC50 for induction of Interferon-α (converted). Summed up:
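Thawed cryopreserved human PBMCs at 1×10^6 cells/ml in RPMI/10% FCS with 1000 units/ml IFN-gamma were exposed to 11-point, 2-fold compound dilutions for 24 h at 37° C. Supernatant IFN-α was quantified by MSD sandwich immunoassay. pEC50 came from 4-parameter fit, normalised to 1 uM resiquimod and DMSO controls.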

For test [2], the system named is Interferon-α. Nature of the test: Induction of Interferon-α using fresh human PBMCs. The test is classed as cell-based. The following applies: PBMC, 24 hr, relative to 2 μM resiquimod control, read-out: mean pEC50 for induction of IFN-α (converted). On the procedure:
(§1) Assay for the Induction of Interferon-α and TNF-α Using Fresh Human Peripheral Blood Mononuclear Cells (PBMCs)
(§2) Compounds were dissolved and serially diluted in DMSO to give 100× the required concentration range using a Biomek 2000. 1 ul of test compound was transferred into 96-well tissue culture plates using a Biomek FX. Each compound was assayed in duplicate for each donor. Each plate contained a dilution series of the TLR7/8 agonist resiquimod as standard and Column 11 contained 1 μl of 200 μM resiquimod (giving a 2 μM final concentration, used to define the approximate maximal response to resiquimod).
(§3) Blood samples from two human donors were collected into sodium heparin (10 U/ml). 25 ml volumes of whole blood were overlaid onto 15 mls Histopaque in Leucosep tubes which were centrifuged at 800 g for 20 min and the band at the plasma/histopaque interface carefully removed. The collected cells were centrifuged at 2500 rpm for 10 min and the pellet resuspended in 10 ml of media (RPMI 1640 (Low endotoxin) supplemented with 10% v/v foetal calf serum (FCS, low endotoxin) 100 U/ml penicillin G, 100 μg/ml streptomycin, 10 mM L-glutamine and 1× non-essential amino acids). A 1:20 dilution of the cells was prepared using trypan blue & the cells counted using a haemocytometer. The PBMCs were diluted to give a final concentration of 2×10^6/ml and 100 ul of this cells suspension was added to wells containing 1 μl of diluted test compound.
(§4) The cell preparations were incubated for 24 hr (37° C., 95% air, 5% CO2) after which a sample of the supernatant was removed using the Biomek FX and assayed for both IFN-α and TNF-α using the MSD (Mesoscale Discovery) electrochemiluminescence assay platform. The IFN-α assay was carried out similarly to that described above. The TNF-α assay was carried out as per kit instructions (Cat No K111 BHB).
(§5) Cytokine released was expressed as a percentage of the 2 μM resiquimod control (column 11). This percentage was plotted against compound concentration and the pEC50 for the response determined by non-linear least squares curve fitting. For the IFN-α responses generally a 4 parameter logistic model was selected. For the TNF responses where a clear maximum response was obtained (i.e. a well defined plateau in the response was observed) then a 4 parameter model was generally used. If the upper asymptote of the curve wasn't well defined then the curve fitting was generally constrained to a maximal response of 100% (i.e., to the response to 2 μM resiquimod) or to the response of the highest concentration tested if this was greater than the resiquimod response. Some curves were bell shaped for one or both cytokines and the cytokine data on the down slope of the bell shaped response (i.e. concentrations above those giving the maximal response) were generally excluded from the fit, usually with the exception of the concentration immediately above the peak response. Curve fitting thus concentrated on the up slope of the dose response curve.

Test [3] relates to Interferon-α. The test can be described thus: Induction of Interferon-α following intranasal dosing in the mouse. The test is classed as in vivo. The following applies: female BALB/c mice, 2 hours after dosing, ELISA. How it is done: Assay for the Induction of Interferon-α Following Intranasal Dosing in the Mouse.
Example 46 was dissolved in 0.2% Tween 80 in saline and administered intranasally (5 μl in total between the nostrils) to female BALB/c mice (n=6) under general anaesthesia. Animals were euthanased 2 hours after dosing and a terminal blood sample was taken and serum levels of Interferon-α was measured using an ELISA assay. Mean serum levels of Interferon-α of 1253 pg/ml were measured. No Interferon-α was detected in vehicle treated controls.
For orientation: An ELISA detects its analyte on a solid surface through an enzyme-linked reagent.

Another test relates to TNF-α. The test can be described thus: Induction of TNF-α using fresh human PBMCs. The test is classed as cell-based. The following applies: PBMC, 24 hr, relative to 2 μM resiquimod control, read-out: mean pEC50 for induction of TNF-α (converted). On the procedure: as §1, §2, §3, §4, §5

For the compound `CCCCOc1nc(N)c2[nH]c(=O)n(CCCCCN3CCN(C)CC3)c2n1` [Example 46, 6-Amino-2-(butyloxy)-9-[5-(4-methyl-1-piperazinyl)pentyl]-7,9-dihydro-8H-purin-8-one], the EC50 in the test with Interferon-α [1] was less than 3160 nM; in the test with Interferon-α [2], less than 1 nM; in the test with TNF-α it was more than 1000 nM. Further, in the test with Interferon-α [3], the “mean serum levels of Interferon-α” value was found to be 1253 pg/mL.
